Reference: patent US9000022B2 (Exelixis Patent Company LLC, priority 2005, dated 2015)

System: LXRα and/or LXRβ
Test: Co-transfection assay (LXRE luciferase reporter, CV-1 cells)
Format: cell-based, human
Settings: tested as described in Example 33; IC50 or EC50 for LXRα and/or LXRβ, isoform not specified; read-out: activity (IC50 or EC50 for LXR)
Procedure, shortened: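 Luciferase signal measures LXR-RXR transcriptional activation in transiently transfected CV-1 cells carrying human LXRα or LXRβ, RXRα and a single-copy LXRE reporter. Cells were exposed to compound for 20 h at 37 °C with at most 1% DMSO, using 10 μM final for screening. Potency was derived from 4-parameter fits of 8-point, half-log dose curves averaged over ≥3 runs, and efficacy was expressed as % of a reference agonist.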

SMILES | IC50 or EC50 (potency, activation or inhibition) [nM]
CC(C)(O)c1cn(-c2ccc(-c3cccc(S(C)(=O)=O)c3)cc2Cl)c(-c2cccc(Cl)c2Cl)n1 [Example 140, 2-(1-(3-chloro-3′-(methyl-sulfonyl)biphenyl-4-yl)-2-(2,3-dichlorophenyl)-1H-imidazol-4-yl)propan-2-ol] | < 1000
CCS(=O)(=O)c1cccc(-c2ccc(-n3cc(C(C)(C)O)nc3-c3cccc(Cl)c3Cl)c(Cl)c2)c1 [Example 141, 2-(1-(3-chloro-3′-(ethyl-sulfonyl)biphenyl-4-yl)-2-(2,3-dichlorophenyl)-1H-imidazol-4-yl)propan-2-ol] | < 1000
CC(C)(O)c1cn(-c2ccc(-c3cccc(S(C)(=O)=O)c3)cc2Cl)c(-c2c(Cl)cccc2Cl)n1 [Example 142, 2-(1-(3-chloro-3′-(methyl-sulfonyl)biphenyl-4-yl)-2-(2,6-dichlorophenyl)-1H-imidazol-4-yl)propan-2-ol] | < 1000
Cc1c(Cl)cccc1-c1nc(C(C)(C)O)cn1-c1ccc(-c2cccc(S(C)(=O)=O)c2)cc1Cl [Example 143, 2-(2-(3-chloro-2-methylphenyl)-1-(3-chloro-3′-(methylsulfonyl)biphenyl-4-yl)-1H-imidazol-4-yl)propan-2-ol] | < 1000
CCS(=O)(=O)c1cccc(-c2ccc(-n3cc(C(C)(C)O)nc3-c3cccc(Cl)c3C)c(Cl)c2)c1 [Example 144, 2-(2-(3-chloro-2-methylphenyl)-1-(3-chloro-3′-(ethylsulfonyl)biphenyl-4-yl)-1H-imidazol-4-yl)propan-2-ol] | < 1000
CC(C)(O)c1cn(-c2ccc(-c3cccc(S(C)(=O)=O)c3)cc2Cl)c(-c2c(F)cccc2Cl)n1 [Example 145, 2-(1-(3-chloro-3′-(methyl-sulfonyl)biphenyl-4-yl)-2-(2-chloro-6-fluorophenyl)-1H-imidazol-4-yl)propan-2-ol] | < 1000
CCS(=O)(=O)c1cccc(-c2ccc(-n3cc(C(C)(C)O)nc3-c3c(F)cccc3Cl)c(Cl)c2)c1 [Example 146, 2-(1-(3-chloro-3′-(ethyl-sulfonyl)biphenyl-4-yl)-2-(2-chloro-6-fluorophenyl)-1H-imidazol-4-yl)propan-2-ol] | < 1000
CC(C)(O)c1cn(-c2ccc(-c3ccc(CO)c(S(C)(=O)=O)c3)cc2Cl)c(-c2c(F)cccc2Cl)n1 [Example 147, 2-(1-(3-chloro-4′-(hydroxymethyl)-3′-(methylsulfonyl)biphenyl-4-yl)-2-(2-chloro-6-fluorophenyl)-1H-imidazol-4-yl)propan-2-ol] | < 1000
CC(C)(O)c1cn(-c2ccc(-c3ccc(CO)c(S(C)(=O)=O)c3)cc2Cl)c(-c2cccc(Cl)c2Cl)n1 [Example 148, 2-(1-(3-chloro-4′-(hydroxymethyl)-3′-(methylsulfonyl)biphenyl-4-yl)-2-(2,3-dichlorophenyl)-1H-imidazol-4-yl)propan-2-ol] | < 1000
CC(C)(O)c1cn(-c2ccc(-c3ccc(CO)c(S(C)(=O)=O)c3)cc2Cl)c(-c2c(Cl)cccc2Cl)n1 [Example 149, 2-(1-(3-chloro-4′-(hydroxymethyl)-3′-(methylsulfonyl)biphenyl-4-yl)-2-(2,6-dichlorophenyl)-1H-imidazol-4-yl)propan-2-ol] | < 1000
CCS(=O)(=O)c1cccc(-c2ccc(-n3cc(C(C)(C)O)nc3-c3c(Cl)cccc3Cl)c(Cl)c2)c1 [Example 150, 2-(1-(3-chloro-3′-(ethyl-sulfonyl)biphenyl-4-yl)-2-(2,6-dichlorophenyl)-1H-imidazol-4-yl)propan-2-ol] | < 1000
CC(C)(O)c1cn(-c2ccc(-c3cccc(S(C)(=O)=O)c3)cc2Cl)c(-c2cccc(F)c2Cl)n1 [Example 151, 2-(1-(3-chloro-3′-(methyl-sulfonyl)biphenyl-4-yl)-2-(2-chloro-3-fluorophenyl)-1H-imidazol-4-yl)propan-2-ol] | < 1000
CCS(=O)(=O)c1cccc(-c2ccc(-n3cc(C(C)(C)O)nc3-c3cccc(F)c3Cl)c(Cl)c2)c1 [Example 152, 2-(1-(3-chloro-3′-(ethyl-sulfonyl)biphenyl-4-yl)-2-(2-chloro-3-fluorophenyl)-1H-imidazol-4-yl)propan-2-ol] | < 1000
CC(C)(O)c1cn(-c2ccc(-c3ccc(CO)c(S(C)(=O)=O)c3)cc2Cl)c(-c2cccc(F)c2Cl)n1 [Example 153, 2-(2-(2-chloro-3-fluorophenyl)-1-(3-chloro-4′-(hydroxymethyl)-3′-(methylsulfonyl)biphenyl-4-yl)-1H-imidazol-4-yl)propan-2-ol] | < 1000
CCS(=O)(=O)c1cccc(-c2ccc(-n3cc(C(C)(C)O)nc3-c3c(C)cccc3Cl)c(Cl)c2)c1 [Example 154, 2-(1-(3-chloro-3′-(ethyl-sulfonyl)biphenyl-4-yl)-2-(2-chloro-6-methylphenyl)-1H-imidazol-4-yl)propan-2-ol] | < 1000
Cc1cccc(Cl)c1-c1nc(C(C)(C)O)cn1-c1ccc(-c2ccc(CO)c(S(C)(=O)=O)c2)cc1Cl [Example 155, 2-(1-(3-chloro-4′-(hydroxy-methyl)-3′-(methylsulfonyl)biphenyl-4-yl)-2-(2-chloro-6-methylphenyl)-1H-imidazol-4-yl)propan-2-ol] | < 1000
Cc1cccc(Cl)c1-c1nc(C(C)(C)O)cn1-c1ccc(-c2cccc(S(C)(=O)=O)c2)cc1Cl [Example 156, 2-(1-(3-chloro-3′-(methyl-sulfonyl)biphenyl-4-yl)-2-(2-chloro-6-methylphenyl)-1H-imidazol-4-yl)propan-2-ol] | < 1000
CC(C)(O)c1cn(-c2ccc(-c3cccc(S(C)(=O)=O)c3)cc2Cl)c(-c2c(F)cccc2F)n1 [Example 157, 2-(1-(3-chloro-3′-(methyl-sulfonyl)biphenyl-4-yl)-2-(2,6-difluorophenyl)-1H-imidazol-4-yl)propan-2-ol] | < 1000
CCS(=O)(=O)c1cccc(-c2ccc(-n3cc(C(C)(C)O)nc3-c3c(F)cccc3F)c(Cl)c2)c1 [Example 158, 2-(1-(3-chloro-3′-(ethyl-sulfonyl)biphenyl-4-yl)-2-(2,6-difluorophenyl)-1H-imidazol-4-yl)propan-2-ol] | < 1000
CC(C)(O)c1cn(-c2ccc(-c3ccc(CO)c(S(C)(=O)=O)c3)cc2Cl)c(-c2c(F)cccc2F)n1 [Example 159, 2-(1-(3-chloro-4′-(hydroxymethyl)-3′-(methylsulfonyl)biphenyl-4-yl)-2-(2,6-difluorophenyl)-1H-imidazol-4-yl)propan-2-ol] | < 1000
Cc1c(Cl)cccc1-c1nc(C(C)(C)O)cn1-c1ccc(-c2ccc(CO)c(S(C)(=O)=O)c2)cc1Cl [Example 160, 2-(2-(3-chloro-2-methylphenyl)-1-(3-chloro-4′-(hydroxymethyl)-3′-(methylsulfonyl)biphenyl-4-yl)-1H-imidazol-4-yl)propan-2-ol] | < 1000
CC(C)c1ccccc1-c1nc(C(C)(C)O)cn1-c1ccc(-c2cccc(S(C)(=O)=O)c2)cc1Cl [Example 161, 2-(1-(3-chloro-3′-(methyl-sulfonyl)biphenyl-4-yl)-2-(2-isopropylphenyl)-1H-imidazol-4-yl)propan-2-ol] | < 1000
CC(C)(O)c1cn(-c2ccc(-c3ccc(C(C)(C)O)c(S(C)(=O)=O)c3)cc2Cl)c(-c2ccccc2Cl)n1 [Example 162, 2-(3′-chloro-4′-(2-(2-chlorophenyl)-4-(2-hydroxypropan-2-yl)-1H-imidazol-1-yl)-3-(methylsulfonyl)biphenyl-4-yl)propan-2-ol] | < 1000
CC(C)(O)c1cn(-c2ccc(-c3ccc(C(C)(C)O)c(S(C)(=O)=O)c3)cc2Cl)c(-c2ccccc2C(F)(F)F)n1 [Example 163, 2-(1-(3-chloro-4′-(2-hydroxypropan-2-yl)-3′-(methylsulfonyl)biphenyl-4-yl)-2-(2-(trifluoromethyl)phenyl)-1H-imidazol-4-yl)propan-2-ol] | < 1000
CC(C)(O)c1cn(-c2ccc(-c3ccc(C(C)(C)O)c(S(C)(=O)=O)c3)cc2Cl)c(-c2c(F)cccc2Cl)n1 [Example 164, 2-(3′-chloro-4′-(2-(2-chloro-6-fluorophenyl)-4-(2-hydroxypropan-2-yl)-1H-imidazol-1-yl)-3-(methyl-sulfonyl)biphenyl-4-yl)propan-2-ol] | 1000 to 10000
CCOC(=O)c1ccc(-c2ccc(-n3cc(C(C)(C)O)nc3-c3c(F)cccc3Cl)c(Cl)c2)cc1S(C)(=O)=O [Example 165, ethyl 3′-chloro-4′-(2-(2-chloro-6-fluorophenyl)-4-(2-hydroxypropan-2-yl)-1H-imidazol-1-yl)-3-(methyl-sulfonyl)biphenyl-4-carboxylate] | 1000 to 10000
Cc1cc(-c2cccc(S(C)(=O)=O)c2)cc(Cl)c1-n1cc(C(C)(C)O)nc1-c1ccccc1Cl [Example 168, 2-(1-(3-chloro-5-methyl-3′-(methyl-sulfonyl)biphenyl-4-yl)-2-(2-chlorophenyl)-1H-imidazol-4-yl)propan-2-ol] | 1000 to 10000
CCS(=O)(=O)c1cccc(-c2cc(C)c(-n3cc(C(C)(C)O)nc3-c3ccccc3Cl)c(Cl)c2)c1 [Example 169, 2-(1-(3-chloro-3′-(ethylsulfonyl)-5-methylbiphenyl-4-yl)-2-(2-chlorophenyl)-1H-imidazol-4-yl)propan-2-ol] | < 1000
CCc1cc(-c2cccc(S(C)(=O)=O)c2)ccc1-n1cc(C(C)(C)O)nc1-c1ccccc1Cl [Example 170, 2-(2-(2-chlorophenyl)-1-(3-ethyl-3′-(methylsulfonyl)biphenyl-4-yl)-1H-imidazol-4-yl)propan-2-ol] | < 1000
